# Test results from PMC9775191, “A Subset Screen of the Compounds Australia Scaffold Library Identifies 7-Acylaminodibenzoxazepinones as Potent and Selective Hits for Anti-Giardia Drug Discovery” (Biomedicines, 2022).
# Test system: G. duodenalis BRIS/91/HEPU/1279
# Assay: Primary Giardia screen at 10 µM (live-cell imaging, automated counting)
# Assay type: cell-based, Giardia duodenalis
# Conditions: for % Inhibition n=1 48h / % Inhibition n=1 24h: first singlicate assay; for % Inhibition n=2 24h / % Inhibition n=2 48h: re-assessment
# In short: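 Compounds were tested once each at 10 μM final (0.2% DMSO) in culture medium under 3% O2, 5% CO2 in N2. Growth was read at 24 and 48 h by live-cell imaging with automated counting, and inhibition expressed as percent growth versus 0.2% DMSO vehicle after media-only background subtraction.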
Structure (SMILES),% Inhibition n=1 48h [%],also measured
O=c1c2cc(-c3cccs3)nn2ccn1Cc1nc(-c2cccc(F)c2)no1 [SN00790579],8.1,–
CCOC(=O)c1ccccc1NC(=O)NC(c1ccccc1)c1nnc(-c2ccccc2)o1 (centres unmarked) [SN00792113],0.0,–
CCc1ncc2c(n1)CN(Cc1csc(-c3ncccn3)n1)CC2 [SN00807940],9.1,–
Cc1nc2sccn2c1-c1nc(-c2ccccc2)c(C(=O)c2ccc3c(c2)NC(=O)CO3)s1 [SN00776123],7.0,–
Cc1cccc(N(C)S(=O)(=O)c2cc(-c3ccno3)sc2C)c1 [SN00790813],6.1,–
O=C(Nc1nc(-c2cc3ccccc3oc2=O)cs1)c1cccc(C(F)(F)F)c1 [SN00769798],0.0,–
Cc1ccc(-n2nc(C)c3sc(N4CCCN(C(=O)c5ccc6c(c5)OCO6)CC4)nc32)cc1 [SN00803168],0.0,–
Cc1sc2ncn(CCN(C)C)c(=O)c2c1C(=O)Nc1ccc(S(N)(=O)=O)nc1 [SN00803001],26.5,–
CCC1Cn2c(C(=O)NCCN(C)C3CCCCC3)cc3cccc(c32)O1 (centres unmarked) [SN00788158],54.5,Average % Inhibition 24h: 13.9%; % Inhibition n=1 24h: 11.2%; % Inhibition n=2 24h: 16.5%; Average % Inhibition 48h: 53.7%; % Inhibition n=2 48h: 52.9%
CCc1ccc(NC(=O)[C@@H]2c3cc(OC)c(OC)cc3C(=O)N3CCCC[C@@H]23)cc1 (relative stereo) [SN00784165],28.1,–
CCCCOc1ccc(CNC(=O)C2CCN(c3nccc4sc(C)cc34)CC2)cc1 [SN00797785],27.9,–
Cc1ccc2c(c1)n(Cc1ccc(Cl)cc1)c(=O)c1nc(C(=O)NCCc3cccs3)nn12 [SN00794982],29.9,–
O=C(c1ccccc1)N1CCN(c2cc(-c3ccc(Cl)cc3)n[nH]2)CC1 [SN00800335],14.4,–
Cc1ccc(NS(=O)(=O)c2c(C)n[nH]c2C)cc1 [SN00784820],8.8,–
CCn1nccc1C(=O)NC1CCN(c2nccnc2OC)C1 (centres unmarked) [SN00801093],0.0,–
Cc1nc2sccn2c1-c1nc(-c2cccc3ccccc23)cs1 [SN00776128],37.4,–
Cc1ccnc(N2CCCC(C(=O)NC3CCCC3)C2)n1 (centres unmarked) [SN00795015],10.9,–
CCn1nnc2c(C(=O)NCCC3=CCCCC3)c(C)sc2c1=O [SN00799184],2.6,–
O=C(C1CC(=O)N(c2cccc(-c3noc(C4CCC4)n3)c2)C1)N1CCN(c2ccccc2F)CC1 (centres unmarked) [SN00789791],5.7,–
CCc1cc(C2CCCN2C(=O)c2cnn3c(C(F)(F)F)cc(-c4cccs4)nc23)on1 (centres unmarked) [SN00793821],1.7,–
CC(NC(=O)c1cc2ccncc2[nH]1)c1ccccc1 (centres unmarked) [SN00798186],4.2,–
CCOC(=O)Cc1ccc(NC(=O)N2CCC3(CC2)N=C(c2ccc(F)cc2)C(=O)N3)cc1 [SN00792712],14.3,–
CCN(c1cccc(C)c1)S(=O)(=O)c1cc(-c2nc(C)c(C)s2)sc1C [SN00797239],10.7,–
COc1ccc(Nc2cc(C)nc(N3CCN(C(=O)c4ccccc4)CC3)n2)cc1 [SN00793485],58.6,Average % Inhibition 24h: 5.5%; % Inhibition n=1 24h: 11.1%; % Inhibition n=2 24h: 0.0%; Average % Inhibition 48h: 29.3%; % Inhibition n=2 48h: 0.0%
Cc1ccc(CN2CCN(C(=O)C3CCC3)c3cccnc32)cc1 [SN00790417],4.2,–
O=C(Cn1nnc(-c2cccs2)n1)NCc1ccc(Cl)cc1 [SN00775829],45.7,–

Structure (SMILES),% Inhibition n=1 48h [%],also measured
CCc1nnc2sc(-c3ccc(CNC(=O)c4ccc(Br)o4)cc3)nn12 [SN00794046],48.2,–
Cc1cc(C2CCCN2Cc2cc(-c3ccco3)on2)on1 (centres unmarked) [SN00777724],35.3,–
CC(C)Cn1nc(C(=O)N2CCCCC2c2nc3ccccc3s2)c2ccccc2c1=O (centres unmarked) [SN00774515],2.8,–
Cc1cccc(-c2noc(Cn3cccn3)n2)c1 [SN00782358],0.0,–
CC(=O)N1CCCN(C(=O)c2cnn(C(C)(C)C)c2C)CC1 [SN00778131],0.0,–
Cc1c(C(=O)N2CCCC2Cn2cccn2)cnn1-c1ccccc1 (centres unmarked) [SN00774604],16.2,–
CN1CCN(CCNC(=O)CN2C(=O)C3CCCCN3c3ccc(C(=O)N4CCCC4)cc32)CC1 (centres unmarked) [SN00792767],13.0,–
COc1ccc(-c2csc(-n3nccc3C(F)(F)F)n2)cc1OC [SN00776140],27.9,–
CCCCn1nnnc1CN1CCCC1Cn1cncn1 (centres unmarked) [SN00782373],0.0,–
CC(C)CCNC(=O)C1CCCCN1S(=O)(=O)c1ccc(F)cc1 (centres unmarked) [SN00784282],5.5,–
O=C(c1cn2ccccc2n1)N1CCN(c2ccccc2F)CC1 [SN00799900],4.9,–
Cc1cccc(CN2CCc3c(cc(C(=O)NC(C)(C)C)n3C)C2)c1 [SN00799594],0.0,–
O=C(Cn1nnc(-c2cccs2)n1)c1ccc(Cl)s1 [SN00775834],2.4,–
COc1ccc(C2=Nc3ccccc3N(CC(=O)Nc3cccc(F)c3)C(=O)C2)cc1 [SN00791795],54.2,Average % Inhibition 24h: 12.6%; % Inhibition n=1 24h: 25.2%; % Inhibition n=2 24h: 0.0%; Average % Inhibition 48h: 40.3%; % Inhibition n=2 48h: 26.4%
CCc1cc(C2CCCN2C(=O)Cc2ccccc2F)on1 (centres unmarked) [SN00793836],10.7,–
CC1CC(C)CN(CCCNC(=O)C2CC3CCCN3C23C(=O)Nc2ccccc23)C1 (centres unmarked) [SN00787674],38.8,–
CCCn1nc2c(cc1=O)CN(Cc1nc(-c3ccco3)no1)CC2 [SN00773497],0.0,–
CCN(c1ccccc1)S(=O)(=O)c1ccc2[nH]cc(C(=O)NCCOC)c(=O)c2c1 [SN00794693],10.4,–
Cc1onc(-c2ccccc2)c1-c1nnc(CN2CCCN(CC(=O)NC(C)(C)C)CC2)o1 [SN00777957],2.0,–
Cc1nnc(-c2ccc3ccn(CC(=O)NC4CC4)c3c2)o1 [SN00798392],0.0,–
COCCc1ccc(Oc2nnnn2-c2ccccc2)cc1 [SN00775761],24.6,–
O=C(Cc1csc(Cc2ccccn2)n1)Nc1ccc2nc(N3CCOCC3)sc2c1 [SN00779496],2.9,–
CCn1nnc(NCc2ccc(-c3ccccc3)cc2)n1 [SN00786962],14.2,–
Cc1c(C(=O)N2CCOCC2C)nnn1-c1cccc2c1CCN(Cc1ccccc1)C2 (centres unmarked) [SN00779590],5.5,–
COc1ccc(-n2nc(C(=O)NCc3ccc(C)cc3)c3c4ccccc4n(C)c3c2=O)cc1 [SN00785076],5.1,–
Cc1ccccc1OCC(=O)N1CCN(Cc2nnc3n2CCCCC3)CC1 [SN00782472],0.5,–

Structure (SMILES),% Inhibition n=1 48h [%],also measured
O=C(NCc1ccccc1)c1nc[nH]c1C(=O)NCc1cccc(C(F)(F)F)c1 [SN00786288],20.4,–
Cc1ccc2c(=O)c(C(=O)N3CCSCC3)c[nH]c2n1 [SN00784417],11.0,–
Cc1nn(C)c(N2CCC(C(=O)NC(C)C(C)C)CC2)c1[N+](=O)[O-] (centres unmarked) [SN00775640],7.0,–
CNC(=O)Nc1ccc(C2(C(=O)Nc3ccc(F)c(C)c3)CCC2)cc1 [SN00795530],0.0,–
O=C1O[C@@H]2C[C@H]3C[C@@H]2[C@@H]1[C@H]3C(=O)Nc1ccc(C(=O)N2CC=C(c3ccccc3)CC2)cc1 [SN00785926],11.8,–
C=CCn1c(=O)c(N2CCC(NC(=O)NC3CCCC3)CC2)nc2cccnc21 [SN00797341],6.8,–
COc1ccc(CNS(=O)(=O)c2c(C)nc3sc(C)nn23)cc1 [SN00799344],4.3,–
CCCN(C)C(=O)c1ccc(-c2ccnc(N3CCCCC3)n2)cc1 [SN00799110],0.0,–
CCCNc1ncnc2c1cnn2-c1ccc(C)cc1 [SN00794411],0.0,–
Cc1ccc(C(=O)N2CCN(c3nc4ccccc4n4cccc34)CC2)cc1 [SN00785395],25.5,–
O=c1c(Br)c(N2CCCCC2)cnn1-c1ccccc1 [SN00775416],8.1,–
CC(C)(C)NC(=O)c1cc(-c2cccnc2)[nH]n1 [SN00799308],15.5,–
COc1ccc(NC(=O)N2CCC3(CC2)Nc2cc(C)ccc2-n2cccc23)cc1 [SN00793004],10.6,–
O=c1c2ccsc2ncn1Cc1noc(-c2ccsc2)n1 [SN00779979],0.0,–
Cc1cc(C)c2c(=O)n(CC(=O)Nc3ccc(Br)cc3)c(=O)n(C)c2n1 [SN00794110],0.0,–
Cc1csc(C2CCN(C(=O)c3ccccc3[N+](=O)[O-])CC2)n1 [SN00781474],8.2,–
CC(C)n1c(=O)c2cn(S(=O)(=O)c3ccccc3)nc2n(C(C)C)c1=O [SN00791107],5.9,–
Cc1cc(NC(=O)c2ccc([N+](=O)[O-])cc2)n(-c2nc3ccccc3[nH]2)n1 [SN00776157],6.0,–
COc1ccc(CNC(=O)c2sc(Nc3ccc(F)cn3)nc2C)cc1 [SN00797617],12.4,–
Cn1nnc2cc(CNC(=O)c3ccc(F)cc3)ccc21 [SN00798670],3.3,–
Cc1ccc(-c2nc(-c3cccnc3)sc2CC(=O)Nc2ccc3nc(C)sc3c2)cc1 [SN00774529],0.0,–
CC(C)(C)OC(=O)N1CCN(S(=O)(=O)C2CN(C(=O)C3(CN)CCC3)C2)CC1 [SN00782268],1.1,–
CCCCn1c(=O)[nH]c(=O)c2c1nc(-c1ccc(-c3cccc([N+](=O)[O-])c3)o1)n2CC [SN00775781],37.2,–
COc1cccc(Nc2nc(N3CCN(c4ccccc4)CC3)nc3c2cnn3C)c1 [SN00788187],5.8,–
CCCNC(=O)CN1CCN(c2nc3ccccn3c2[N+](=O)[O-])CC1 [SN00778045],31.4,–
